Measured values published in US20240287138A1, “CYCLIC PEPTIDES FOR INHIBITING TNF RECEPTOR 1 ACTIVITY” (Merck Sharp & Dohme LLC, priority 2023, published 2024).
Like-named read-outs stand apart in the source and are kept apart here. Numbered stars: 1 amine (or outer) side, 2 acyl side, 3 side chain; on linkers, the order of the positions; unused ones are H or OH. Square brackets hold non-standard residues; d marks the D form. Peptide text beside a SMILES is read from it. * marks the point of attachment. Ala(2-carboxypyrimidin-5-yl) = N[C@@H](Cc1cnc(C(=O)O)nc1)C(=O)O; Trp(βS-Me,7-OMe) = COc1cccc2c([C@H](C)[C@H](N)C(=O)O)c[nH]c12; dPro(trans-4-NMe3+) = C[N+](C)(C)[C@@H]1CN[C@@H](C(=O)O)C1; Phe(4-SO2NH2) = N[C@@H](Cc1ccc(S(N)(=O)=O)cc1)C(=O)O; Ala(indazol-1-yl) = N[C@@H](Cn1ncc2ccccc21)C(=O)O; Trp(7-CN) = N#Cc1cccc2c(C[C@H](N)C(=O)O)c[nH]c12; Trp(7-Cl) = N[C@@H](Cc1c[nH]c2c(Cl)cccc12)C(=O)O; Ala(pyrimidin-5-yl) = N[C@@H](Cc1cncnc1)C(=O)O; Phe(3-CONH2) = NC(=O)c1cccc(C[C@H](N)C(=O)O)c1; Phe(4-CONH2) = NC(=O)c1ccc(C[C@H](N)C(=O)O)cc1; Phe(4-COOH) = N[C@@H](Cc1ccc(C(=O)O)cc1)C(=O)O; Trp(7-aza) = N[C@@H](Cc1c[nH]c2ncccc12)C(=O)O; X60 = NC(=O)[C@H](O)[C@H](N[*:1])C(=O)[*:2]; X63 = O=C([C@@H]1CC[C@H](O)CN1[*:1])[*:2]; Pip(5R-OH) = O=C(O)[C@@H]1CC[C@@H](O)CN1; X1 = O=C([C@@H]1CC[C@H](N[*:1])C1)[*:2]; 4Pal = N[C@@H](Cc1ccncc1)C(=O)O; dHyp = O=C(O)[C@H]1C[C@H](O)CN1; αMeS = C[C@](N)(CO)C(=O)O; Carboxymethyl = O=C(O)C*; Nle = CCCC[C@H](N)C(=O)O; Sar = CNCC(=O)O

Legend:
[1] = molecular target: T1, human soluble TNFR1 (sTNFR1) (Homo sapiens, UniProt P19438); assay: Human sTNFR1-peptide displacement assay (LanthaScreen Eu TR-FRET binding assay)
T1 construct: made in house; host or cells: Sf21 (baculovirus)
T1 sequence (P19438 with tags, fused parts or gaps): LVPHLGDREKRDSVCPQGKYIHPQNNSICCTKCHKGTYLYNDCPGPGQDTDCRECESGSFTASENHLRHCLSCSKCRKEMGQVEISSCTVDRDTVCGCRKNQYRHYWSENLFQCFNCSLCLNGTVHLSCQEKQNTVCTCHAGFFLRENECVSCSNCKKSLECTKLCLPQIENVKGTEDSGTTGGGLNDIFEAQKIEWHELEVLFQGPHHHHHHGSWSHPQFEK
In short: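 Readout is the 665/615 nm TR-FRET ratio (Eu anti-His donor, streptavidin-Alexa647 acceptor), normalized to DMSO and saturating displacer, fit by Morrison-based five-parameter logistic for Kd^app. His-tagged sTNFR1 (1-211) prebound to 100 nM biotinylated peptide SEQ ID NO.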

[2] = molecular target: T2, TNFα-induced NF-κB signal transduction pathway (TNFR1 signaling) in THP-1 cells (Homo sapiens, UniProt P19438); assay: THP-1 Lucia NF-κB reporter cell assay, inhibition of TNFα-induced NF-κB signaling; format: cell-based; conditions: THP-1 NF-κB Lucia reporter cells, 10 ng/mL TNFα, 16-18 h, secreted luciferase, read-out: THP-1 IC50
T2 sequence (P19438 30-455): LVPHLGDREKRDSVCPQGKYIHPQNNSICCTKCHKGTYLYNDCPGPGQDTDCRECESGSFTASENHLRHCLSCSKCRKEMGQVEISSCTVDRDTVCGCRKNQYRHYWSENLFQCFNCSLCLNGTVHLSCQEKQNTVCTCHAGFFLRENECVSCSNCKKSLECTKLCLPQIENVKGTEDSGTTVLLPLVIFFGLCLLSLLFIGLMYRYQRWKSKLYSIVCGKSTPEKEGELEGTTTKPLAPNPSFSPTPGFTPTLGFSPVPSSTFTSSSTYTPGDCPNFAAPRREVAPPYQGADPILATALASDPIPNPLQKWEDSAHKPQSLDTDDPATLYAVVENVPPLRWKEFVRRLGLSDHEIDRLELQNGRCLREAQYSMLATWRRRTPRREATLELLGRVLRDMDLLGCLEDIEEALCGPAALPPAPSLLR
In short: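 Read-out: secreted Lucia luciferase luminescence (QUANTI-Luc) from supernatant after 16-18 h, 37 °C, 10 ng/mL rhTNFα. Peptide pretreatment 1 h at 37 °C; 20,000 cells/well, selection antibiotics omitted. IC50 via 4-parameter logistic model against min/max controls.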

Compound	Kd [1]	IC50 [2]	Kd ([1]; displacement of biotinylated peptide SEQ ID NO. 1 from sTNFR1, 20 point titration, 5-parameter fit based on Morrison equation (tight binding), read-out: TR-FRET Kd^app)	IC50 ([2]; listed as 77)
CCCC[C@@H]1NC(=O)[C@@H]2CC[C@@H](C2)NC(=O)[C@H]([C@@H](C)c2c[nH]c3c(OC)cccc23)NC(=O)CN(C)C(=O)[C@H](Cc2ccc(OCC(=O)O)cc2)NC(=O)[C@H](Cc2ccc(S(N)(=O)=O)cc2)NC(=O)[C@](C)(CO)NC(=O)[C@H](Cc2c[nH]c3c(C#N)cccc23)NC(=O)[C@H](Cc2ccc(OCC(=O)O)cc2)NC(=O)[C@H](CC(N)=O)NC(=O)[C@H]2C[C@H]([N+](C)(C)C)CN2C(=O)[C@H](Cn2ncc3ccccc32)NC(=O)[C@@H]2CC[C@@H](O)CN2C(=O)[C@H](Cc2cncnc2)NC1=O [SEQ ID NO. 43] (cyclo(NY(Carboxymethyl)[Trp(7-CN)][αMeS][Phe(4-SO2NH2)]Y(Carboxymethyl)[Sar][Trp(βS-Me,7-OMe)][X1][Nle][Ala(pyrimidin-5-yl)][Pip(5R-OH)][Ala(indazol-1-yl)][dPro(trans-4-NMe3+)]))	0.09 nM	0.6 nM		
CCCC[C@@H]1NC(=O)[C@@H]2CC[C@@H](C2)NC(=O)[C@H]([C@@H](C)c2c[nH]c3c(OC)cccc23)NC(=O)CN(C)C(=O)[C@H](Cc2cccc(C(N)=O)c2)NC(=O)[C@H](Cc2ccc(C(N)=O)cc2)NC(=O)[C@](C)(CO)NC(=O)[C@H](Cc2c[nH]c3c(Cl)cccc23)NC(=O)[C@H](Cc2ccncc2)NC(=O)[C@H](CC(N)=O)NC(=O)[C@H]2C[C@H](O)CN2C(=O)[C@H](Cc2c[nH]c3ccccc23)NC(=O)[C@@H]2CC[C@H](O)CN2C(=O)[C@H](Cc2ccncc2)NC1=O [SEQ ID NO. 67] (cyclo([4Pal][Trp(7-Cl)][αMeS][Phe(4-CONH2)][Phe(3-CONH2)][Sar][Trp(βS-Me,7-OMe)][X1][Nle][4Pal][X63]W[dHyp]N))	0.2 nM	0.4 nM		
CCCC[C@@H]1NC(=O)[C@@H]2CC[C@@H](C2)NC(=O)[C@H]([C@@H](C)c2c[nH]c3c(OC)cccc23)NC(=O)CN(C)C(=O)[C@H](Cc2ccc(C(=O)O)cc2)NC(=O)[C@H](Cc2ccc(C(N)=O)cc2)NC(=O)[C@](C)(CO)NC(=O)[C@H](Cc2c[nH]c3c(C#N)cccc23)NC(=O)[C@H](Cc2ccc(C(=O)O)cc2)NC(=O)[C@H](CC(N)=O)NC(=O)[C@H]2C[C@H](OCC(=O)O)CN2C(=O)[C@H](Cc2c[nH]c3ncccc23)NC(=O)[C@@H]2CC[C@@H](O)CN2C(=O)[C@H](Cc2ccncc2)NC1=O [SEQ ID NO. 77] (cyclo([4Pal][Pip(5R-OH)][Trp(7-aza)][dHyp](Carboxymethyl)N[Phe(4-COOH)][Trp(7-CN)][αMeS][Phe(4-CONH2)][Phe(4-COOH)][Sar][Trp(βS-Me,7-OMe)][X1][Nle]))			0.06 nM	0.6 nM
CCCC[C@@H]1NC(=O)[C@@H]2CC[C@@H](C2)NC(=O)[C@H]([C@@H](C)c2c[nH]c3c(OC)cccc23)NC(=O)CN(C)C(=O)[C@H](Cc2ccc(C(=O)O)cc2)NC(=O)[C@H](Cc2ccc(C(N)=O)cc2)NC(=O)[C@](C)(CO)NC(=O)[C@H](Cc2c[nH]c3c(C#N)cccc23)NC(=O)[C@H](Cc2ccncc2)NC(=O)[C@H]([C@@H](O)C(N)=O)NC(=O)[C@H]2C[C@H](O)CN2C(=O)[C@H](Cc2c[nH]c3ccccc23)NC(=O)[C@@H]2CC[C@@H](O)CN2C(=O)[C@H](Cc2ccncc2)NC1=O [SEQ ID NO. 78] (cyclo([4Pal][Trp(7-CN)][αMeS][Phe(4-CONH2)][Phe(4-COOH)][Sar][Trp(βS-Me,7-OMe)][X1][Nle][4Pal][Pip(5R-OH)]W[dHyp][X60]))	0.05 nM	0.7 nM		
CCCC[C@@H]1NC(=O)[C@@H]2CC[C@@H](C2)NC(=O)[C@H]([C@@H](C)c2c[nH]c3c(OC)cccc23)NC(=O)CN(C)C(=O)[C@H](Cc2ccc(C(=O)O)cc2)NC(=O)[C@H](Cc2ccc(C(N)=O)cc2)NC(=O)[C@](C)(CO)NC(=O)[C@H](Cc2c[nH]c3c(Cl)cccc23)NC(=O)[C@H](Cc2cnc(C(=O)O)nc2)NC(=O)[C@H](CC(N)=O)NC(=O)[C@H]2C[C@H](O)CN2C(=O)[C@H](Cc2c[nH]c3ccccc23)NC(=O)[C@@H]2CC[C@@H](O)CN2C(=O)[C@H](Cc2ccncc2)NC1=O [SEQ ID NO. 88] (cyclo([4Pal][Pip(5R-OH)]W[dHyp]N[Ala(2-carboxypyrimidin-5-yl)][Trp(7-Cl)][αMeS][Phe(4-CONH2)][Phe(4-COOH)][Sar][Trp(βS-Me,7-OMe)][X1][Nle]))	0.2 nM	1.9 nM		
